Assays:
[1] = test system: TTR; assay: TTR editing in primary human hepatocytes transfected with Spy Cas9 mRNA and dgRNAs (Table 9); format: cell-based; conditions: dgRNA co-transfected with Spy Cas9 mRNA (SEQ ID NO:2)
Method: (§1) Primary liver hepatocytes. Primary human liver hepatocytes (PHH) and primary cynomolgus liver hepatocytes (PCH) (Gibco) were cultured per the manufacturer's protocol (Invitrogen, protocol 11.28.2012). In brief, the cells were thawed and resuspended in hepatocyte thawing medium with supplements (Gibco, Cat. CM7000) followed by centrifugation at 100 g for 10 minutes for human and 80 g for 4 minutes for cyno. The supernatant was discarded and the pelleted cells resuspended in hepatocyte plating medium plus supplement pack (Invitrogen, Cat. A1217601 and CM3000). Cells were counted and plated on Bio-coat collagen I coated 96-well plates (ThermoFisher, Cat. 877272) at a density of 33,000 cells/well for human or 60,000 cells/well for cyno (or 65,000 cells/well when assaying effects on TTR protein, described further below). Plated cells were allowed to settle and adhere for 6 or 24 hours in a tissue culture incubator at 37° C. and 5% CO2 atmosphere. After incubation cells were checked for monolayer formation and media was replaced with hepatocyte culture medium with serum-free supplement pack (Invitrogen, Cat. A1217601 and CM4000).
Lipofectamine RNAiMax (ThermoFisher, Cat. 13778150) based transfections were conducted as per the manufacturer's protocol. Cells were sequentially transfected with a lipoplex containing Spy Cas9 mRNA (100 ng), Lipofectamine RNAiMax (0.4 μL/well) and OptiMem followed by a separate lipoplex containing crRNA (25 nM) and tracer RNA (25 nM) or sgRNA (25 nM), Lipofectamine RNAiMax (0.4 μL/well) and OptiMem.
(§2) Transfected cells were harvested post-transfection at 24, 48, or 72 hours. The genomic DNA was extracted from each well of a 96-well plate using 50 μL/well BuccalAmp DNA Extraction solution (Epicentre, Cat. QE09050) per manufacturer's protocol. All DNA samples were subjected to PCR and subsequent NGS analyses, as described herein.
(§3) To quantitatively determine the efficiency of editing at the target location in the genome, sequencing was utilized to identify the presence of insertions and deletions introduced by gene editing.
(§4) Primers were designed around the target site within the gene of interest (e.g. TTR), and the genomic area of interest was amplified.
(§5) Additional PCR was performed per the manufacturer's protocols (Illumina) to add chemistry for sequencing. The amplicons were sequenced on an Illumina MiSeq instrument. The reads were aligned to a reference genome (e.g., the human reference genome (hg38), the cynomologus reference genome (mf5), the rat reference genome (rn6), or the mouse reference genome (mm10)) after eliminating those having low quality scores. The resulting files containing the reads were mapped to the reference genome (BAM files), where reads that overlapped the target region of interest were selected and the number of wild type reads versus the number of reads which contain an insertion, substitution, or deletion was calculated.
(§6) The editing percentage (e.g., the “editing efficiency” or “percent editing” or “indel frequency”) is defined as the total number of sequence reads with insertions/deletions (“indels”) or substitutions over the total number of sequence reads, including wild type.
(§7) Guides in dgRNA format targeting human TTR and the cynomologus matched sequences were delivered to HEK293 Cas9, HUH7 and HepG2 cell lines, as well as primary human hepatocytes and primary cynomolgus monkey hepatocytes as described in Example 1. Percent editing was determined for crRNAs comprising each guide sequence across each cell type and the guide sequences were then rank ordered based on highest % edit. The screening data for the guide sequences in Table 1 in all five cell lines are listed below (Table 4 through 11).

[2] = test system: TTR; assay: TTR editing in HepG2 cells transfected with Spy Cas9 mRNA and dgRNAs (Table 6); format: cell-based, human; conditions: HepG2 cells co-transfected with Spy Cas9 mRNA (SEQ ID NO:2) and dgRNAs
Method: HepG2 cell line. The human hepatocellular carcinoma cell line HepG2 (American Type Culture Collection, Cat. HB-8065) was cultured in DMEM media supplemented with 10% fetal bovine serum. Cells were counted and plated on Bio-coat collagen I coated 96-well plates (ThermoFisher, Cat. 877272) at a density of 10,000 cells/well in a 96-well plate 24 hours prior to transfection. Cells were transfected with Lipofectamine 2000 (ThermoFisher, Cat. 11668019) per the manufacturer's protocol. Cells were sequentially transfected with lipoplex containing Spy Cas9 mRNA (100 ng), Lipofectamine 2000 (0.2 μL/well) and OptiMem followed by a separate lipoplex containing individual crRNA (25 nM), tracer RNA (25 nM), Lipofectamine 2000 (0.2 μL/well) and OptiMem.
as §2, §3, §4, §5, §6, §7

[3] = test system: TTR; assay: TTR editing in primary human hepatocytes transfected with Spy Cas9 protein (RNP) loaded with dgRNAs (Table 8); format: cell-based; conditions: dgRNA transfected with Spy Cas9 protein (RNP)
Method: as §1
(§8) […] formation was performed prior to electroporation or transfection of Spy Cas9 protein loaded with guide RNAs (RNPs) onto cells. For dual guide (dgRNAs), individual crRNA and trRNA was pre-annealed by mixing equivalent amounts of reagent and incubating at 95° C. for 2 min and cooling to room temperature. Single guide (sgRNAs) were boiled at 95° C. for 2 min and cooling to room temperature. The boiled dgRNA or sgRNA was incubated with Spy Cas9 protein in Optimem for 10 minutes at room temperature to form a ribonucleoprotein (RNP) complex.
For RNP lipoplex transfections, cells were transfected with Lipofectamine RNAiMAX (ThermoFisher, Cat. 13778150) per the manufacturer's protocol. Cells were transfected with an RNP containing Spy Cas9 (10 nM), individual guide (10 nM), tracer RNA (10 nM), Lipofectamine RNAiMAX (1.0 μL/well) and OptiMem. RNP formation was performed as described above.
as §2, §3, §4, §5, §6
Guides in dgRNA format targeting human TTR and the cynomologus matched sequences were delivered to HEK293 Cas9, HUH7 and HepG2 cell lines, as well as primary human hepatocytes and primary cynomolgus monkey hepatocytes as described in Example 1. […]

[4] = test system: TTR; assay: TTR editing in primary cyno hepatocytes electroporated with Spy Cas9 protein and dgRNAs (Tables 10, 11); format: cell-based, cynomolgus monkey; conditions: Table 10; primary cyno hepatocytes electroporated with Spy Cas9 protein (RNP) and dgRNAs
Method: as §1, §8
(§9) For RNP electroporation into primary human and cyno hepatocytes, the cells are thawed and resuspended in Lonza electroporation Primary Cell P3 buffer at a concentration of 2500 cells per μL for human hepatocytes and 3500 cells per μL for cyno hepatocytes. A volume of 20 μL of resuspended cells and 5 μL of RNP are mixed together per guide. 20 μL of the mixture is placed into a Lonza electroporation plate. The cells were electroporated using the Lonza nucleofector with the preset protocol EX-147. Post electroporation, the cells are transferred into a Biocoat plate containing pre-warmed maintenance media and placed in a tissue culture incubator at 37° C. and 5% CO2.
as §2, §3, §4, §5
(§10) The editing percentage (e.g., the “editing efficiency” or “percent editing” or “indel frequency”) is defined as the total number of sequence reads with insertions/deletions (“indels”) or substitutions over the total number of sequence reads, including wild type. […]

[5] = test system: TTR; assay: TTR editing in primary human hepatocytes electroporated with Spy Cas9 protein loaded with dgRNAs (Table 7); format: cell-based; conditions: dgRNA electroporated with Spy Cas9 protein (RNP)
Method: as §1, §8, §9, §2, §3, §4, §5, §10

[6] = test system: off-target genomic sites; assay: Off-target oligo insertion based assay in HEK293_Cas9 cells, dgRNAs and sgRNAs (Tables 23, 24); format: cell-based, human; conditions: Table 23; TTR dgRNAs in HekCas9 cells, oligo insertion based assay
Method: An oligo insertion based assay (See, e.g., Tsai et al., Nature Biotechnology 33, 187-197; 2015) was used to determine potential off-target genomic sites cleaved by Cas9 targeting TTR. Forty-five dgRNAs from Table 1 (and two control guides with known off-target profiles) were screened in the HEK293 Cas9 cells. The human embryonic kidney adenocarcinoma cell line HEK293 constitutively expressing Spy Cas9 (“HEK293_Cas9”) was cultured in DMEM media supplemented with 10% fetal bovine serum and 500 μg/ml G418. Cells were plated at a density of 30,000 cells/well in a 96-well plate 24 hours prior to transfection. Cells were transfected with Lipofectamine RNAiMAX (ThermoFisher, Cat. 13778150) per the manufacturer's protocol. Cells were transfected with a lipoplex containing individual crRNA (15 nM), trRNA (15 nM), and donor oligo with (10 nM) Lipofectamine RNAiMAX (0.3 μL/well) and OptiMem. Cells were lysed 24 hours post transfection and genomic DNA was extracting using Zymo's Quick gDNA 96 Extraction kit (catalog #D3012) following the manufacturer's recommended protocol. The gDNA was quantified using the Qubit High Sensitivity dsDNA kit (Life Technologies). Libraries were prepared per the previously described method in Tsai et al, 2015 with minor modifications. Sequencing was performed on Illumina's MiSeq and HiSeq 2500. The assay identified potential off-target sites for some of the crRNAs which are plotted in FIG. 2.
Additionally, a subset of the guides was assessed for off-target potential as modified sgRNAs in the Hek_Cas9 cells via the oligo based insertion method described above. The off-target results were plotted in FIG. 4.

Row | Sequence | Avg % Deletion [1] [%] | Avg % Edit [1] [%] | Avg % Insert [1] [%] | Avg % Deletion [2] [%] | Avg % Edit [2] [%] | Avg % Insert [2] [%] | Avg % Deletion [3] [%] | Avg % Edit [3] [%] | Avg % Insert [3] [%] | Avg % Deletion [4] [%] | Avg % Edit [4] [%] | Avg % Insert [4] [%] | Avg % Deletion [5] [%] | Avg % Edit [5] [%] | Avg % Insert [5] [%] | # Sites (off-target integration sites detected) [6]
1 | AGCCGUGGUGGAAUAGGAGU (tested as dual guide RNA, chemistry not given here) [CR005299] | 0.60 | 9.43 | 8.93 | 2.30 | 38.61 | 36.32 | 0.58 | 19.37 | 18.79 | 0.26 | 13.48 | 13.23 | 0.35 | 8.65 | 8.30 | 
2 | GGCCGUGCAUGUGUUCAGAA (tested as dual guide RNA, chemistry not given here) [CR005304] | 44.47 | 45.27 | 0.83 | 54.75 | 62.82 | 8.07 | 45.13 | 49.45 | 4.32 |  |  |  | 61.63 | 67.00 | 5.53 | 0
3 | UAUAGGAAAACCAGUGAGUC (tested as dual guide RNA, chemistry not given here) [CR005305] | 1.60 | 7.53 | 5.93 | 1.21 | 13.51 | 12.30 | 0.34 | 7.07 | 6.73 | 0.15 | 11.28 | 11.13 | 0.40 | 3.83 | 3.53 | 

Reference: patent publication US11795460B2, “Compositions and methods for TTR gene editing and treating ATTR amyloidosis” (Intellia Therapeutics, Inc., priority 2017, dated 2023)
